Experimental findings from patent publication US7943606B2, “Compositions and methods to control abnormal cell growth” (CanCure Laboratories, LLC, priority 2005, dated 2011) are described below.

Counter-ions that a name gives are not always drawn. Like-named read-outs stand apart in the source and are kept apart here.

The subject of one test is MEL-28 cells. The test is described as follows: Viability of MEL-28 melanoma cells. The conditions noted are these: for inhibition at 100 µM: Homo sapiens, SK-MEL-28, read-out: Decrease in cell number (maximal decrease = 100%), MEL-28. The class given is cell-based, human. On the procedure: (§1) To quantify cell death, around the time when significant and characteristic morphological changes took place, cells were pulse-labeled for 10 minutes with [^3H]thymidine to measure DNA activity as described elsewhere [Tomono, M. and Kiss, Z. (1995), “Ethanol enhances the stimulatory effects of insulin and insulin-like growth factor-I on DNA synthesis in NIH 3T3 fibroblasts,” Biochem. Biophys. Res. Commun. 208, 63-67]. Also, cells were collected as suspensions using trypsin, an established method in cell biology, followed by re-plating of cells in fresh tissue culture medium. If no viable cells were obtained after one week in culture, it meant that the cells at the time of re-plating were dead. Survival values obtained with untreated cells were considered 100%. For the determination of relative number of viable cells after treatments, in most cases the MTT assay was used. This calorimetric assay is based on the ability of living cells, but not dead cells, to reduce 3-(4,5-dimethyl thiazol-2-yl)-2,5-diphenyltetrazolium bromide [Carmichael, J, De Graff, W. G., Gazdar, A. F., Minna, J. D. and Mitchell, J. B. (1987), “Evaluation of tetrazolium-based semi-automated calorimetric assay: Assessment of chemosensitivity testing,” Cancer Res. 47, 936-942]. For this assay, cells were plated in 96-well plates, and the MTT assay was performed both in untreated and treated cell cultures. The MTT assay also was performed at the start of treatments to allow assessment of proliferation rates in the control and treated cell cultures.
About 60% confluent cultures of MEL-28 cells, cultured in 12-well plates in MEM medium supplemented with 10% FBS, were either untreated (FIG. 2A), or were treated with 100 μM CCDTHT (CCompound3) for 72 hours (FIG. 2B).
The NIH 3T3 (normal) mouse fibroblast, A431 human epidermoid adenocarcinoma, and MCF-7 human breast cancer cells were cultured in DMEM medium containing 10% FBS. The MEL-28 human melanoma cells were cultured in MEM medium containing 10% FBS. The HT-29 human colon adenocarcinoma cells were cultured in McCoy's 5a medium containing 10% FBS. The A549 human lung carcinoma cells were maintained in Ham's F12K medium containing 10% FBS. Cells were seeded into 96-well plates and treated at ˜70-90% confluency. Two hours before treatments the medium was changed for fresh 10% serum medium, and then the cells were incubated for 72 hours in the presence of 0-200 μM of CCompound1 (●) or CCompound3 (CCDTHT) (▴), as indicated. The MTT assay was used to determine cell viability after treatments. The values, shown in FIGS. 5A-5F and expressed as percent decrease in viability compared to the untreated control cells, are the mean±std. dev. of 8 incubations in one experiment.
(§2) NIH3T3, T47D, A-431, HT-29, and MEL-28 cells were cultured as indicated earlier. CaOV-3 human ovarian cancer cells were cultured in DMEM containing 10% FBS. ZR-75-1 human estrogen receptor-positive breast cancer cells were maintained in RPMI 1640 medium supplemented with 10% FBS. HTB-157 human fetal fibroblasts, MEL-24 human malignant melanoma cells, Hep G2 human hepatoblastoma cells, and CaCO-2 human colon adenocarcinoma cells were maintained in Eagles's MEM containing 10% FBS. MB-231 human estrogen receptor-negative breast cancer cells were maintained in Leibovitz's L-15 medium supplemented with 10% FBS. Cells were seeded into 96-well plates and treated at ˜70-90% confluency. Two hours prior to treatments the medium was changed for fresh 10% serum medium, and then the cells were incubated for 10 days in the absence (□) or presence of 50 μM CCDTHT ? or 100 μM CCDTHT (▪). The medium was changed and the cells were re-treated on days 3 and 6. The MTT assay was used to determine cell viability on day 10. The data, shown in FIG. 6, are the mean±std. dev. of 8 incubations in one experiment.

A further test deals with OVCAR cells. Put plainly: Viability of OVCAR ovarian cancer cells (MTT assay). Particulars: Homo sapiens, 72 hours, read-out: Decrease in cell number (maximal decrease = 100%), OVCAR. The class given is cell-based. On the procedure:
as §1
NIH 3T3, MEL-28, MEL-24, CaOV-3, ZR-75-1, and T47D cells were cultured as described above. The OVCAR human ovarian cancer cells were cultured in DMEM containing 10% FBS. Cells were seeded into 96-well plates and used at ˜60-80% confluency. Two hours before treatments the medium was changed for fresh 10% serum medium, and then the cells were incubated for 72 hours in the absence or presence of 100 μM of each of CC compounds as listed in TABLE 3. The inhibitory effects of CC compounds on cell proliferation are expressed as percent decrease compared to untreated cell cultures (the greater the number, the greater the inhibitory effect of the CC compound). […] Also, for the treatment of ovarian cancer and breast cancer, CCDTHT seems to be the best choice (although in this experiment CCompounds21-26 were not tested).

The test system of the next test is T47D cells. The test is described as follows: Viability of T47D breast cancer cells. The class given is cell-based, human. The conditions noted are these: for inhibition at 100 µM / IC50: Homo sapiens, T47D; for inhibition at 100 µM: read-out: Decrease in cell number (maximal decrease = 100%), T47D. Here is the method: as §1
About 40% confluent cultures of T47D cells, cultured in 12-well plates in RPMI 1640 medium supplemented with 0.2 IU bovine insulin and 10% FBS, were either untreated (FIG. 4A), or were treated with 100 μM CCDTHT (CCompound3) for 72 hours (FIG. 4B).
as §2
The MRC-5 cell line is derived from normal lung tissue of a […] fetus. MRC-5 cells were maintained and treated in Eagles Medium with Hanks' BSS containing 10% fetal bovine serum. The T47D cells were maintained and treated in RPMI 1640 medium supplemented with 0.2 IU bovine insulin and 10% fetal bovine serum. The CaOV-3 human ovarian cancer cells were cultured in Dulbecco's modified Eagle's medium containing 10% fetal bovine serum. The cells were seeded in 96-well plates either at 10,000 cells per well or 30,000 cells per well to examine the antiproliferative and cytotoxic effects of various CC compounds, respectively. The cells were incubated for 24 hours, then the medium was changed followed by the treatments of cultures 2 hours after the medium change. At this point, cell cultures seeded at 10,000 cells per well and 30,000 cells per well were 25-35% and 80-90% confluent, respectively.

[1] abbreviates: 100 μM, 72 hours, 12-well plates.

As a reminder, the IC50 is the concentration that gives 50% inhibition.

For the molecule `CC[N+](C)(CC)CCOCc1ccc2sc3ccccc3c(=O)c2c1.[I-]` [CCDTHT, N,N-diethyl-N-methyl-2-[(9-oxo-9H-thioxanthen-2-yl)methoxy]-ethanaminium iodide], the “reduction of cell numbers, MEL-28, CCDTHT versus CCompound1” value in the test with MEL-28 cells (0-200 μM, 72 hours, MTT) is listed as “clearly more effective than CCompound1”. Also, the “reversibility: proliferation in fresh medium after treatment, MEL-28” value in the test on MEL-28 cells (50 μM 48 hours, then 96 hours without CCDTHT) is recorded as “not sufficient to suppress proliferation”. For the same molecule, the “DNA synthesis (radiolabeled thymidine), MEL-28” value with MEL-28 cells (100 μM, 72 hours) is “did not synthesize detectable amount of DNA”. The “morphology / cell death, MEL-28” value with MEL-28 cells (setting [1]) was “practically all cells rounded up”. In the test with MEL-28 cells (100 μM, 72 hours, MTT), the “decrease in the number of viable cells versus 0.5 mM HC-3, MEL-28” value is on record as “much greater decreases in the number of viable cells compared to 0.5 mM HC-3”. Also, the “sensitivity to the inhibitory actions, MEL-28” value in the test with MEL-28 cells (50 and 100 μM, 10 days, MTT) is listed as “very sensitive”. For the same molecule, the inhibition at 100 µM was determined as 60% in the test with MEL-28 cells (100 μM, 72 hours); 63% in the test with OVCAR cells; 61% in the test with T47D cells (100 μM, 72 hours). For the same molecule, the “DNA synthesis after re-seeding treated T47D cells” value with T47D cells (100 μM 72 hours, re-seeded, 96 hours later) was “no DNA synthesis could be detected”. Also, the “morphology / cell death, T47D” value with T47D cells (setting [1]) is recorded as “practically all cells rounded up”. Moreover, the “sensitivity to the inhibitory actions, T47D” value in the test on T47D cells (50 and 100 μM, 10 days, MTT) is given as “very sensitive”. Besides, the IC50 in the test on T47D cells (10,000 cells per well (25-35% confluent), 72 hours, MTT, read-out: IC50 values, Antiproliferative, T47D) turned out to be 47 µM; with T47D cells (30,000 cells per well (80-90% confluent), 72 hours, MTT, read-out: IC50 values, Cytotoxic, T47D), 66 µM.

As to `CC[N+](CC)(CC)CCCOCc1ccc2sc3ccccc3c(=O)c2c1` [CCcompound9, N,N,N-Triethyl-3-[(9-oxo-9H-thioxanthen-2-yl)methoxy]-propane-1-aminium iodide], the inhibition at 100 µM in the test with MEL-28 cells (100 μM, 72 hours) is 14%; in the test with OVCAR cells, 41%; in the test on T47D cells (100 μM, 72 hours), 52%.

With `CC[N+](C)(CC)CCCOCc1ccc2sc3ccccc3c(=O)c2c1` [CCcompound10, N,N-Diethyl-N-methyl-3-[(9-oxo-9H-thioxanthen-2-yl)methoxy]-propane-1-aminium iodide], the inhibition at 100 µM with MEL-28 cells (100 μM, 72 hours) came to 11%; in the test with OVCAR cells it was 38%; in the test on T47D cells (100 μM, 72 hours) it was 51%.

As for `CC[N+](C)(C)CCCOCc1ccc2sc3ccccc3c(=O)c2c1` [CCcompound11, N,N-Dimethyl-N-ethyl-3-[(9-oxo-9H-thioxanthen-2-yl)methoxy]-propane-1-aminium iodide], the inhibition at 100 µM in the test with MEL-28 cells (100 μM, 72 hours) amounted to 94%; in the test on OVCAR cells, 62%; in the test with T47D cells (100 μM, 72 hours), 59%.

Regarding `CC[NH+](CC)CCCOCc1ccc2sc3ccccc3c(=O)c2c1` [CCcompound12, 2-{[3-(Diethylamino)propoxy]meth-yl}-9H-thioxanthen-9-one hydrochloride], the inhibition at 100 µM with MEL-28 cells (100 μM, 72 hours) is 71%; in the test on OVCAR cells, 30%; in the test with T47D cells (100 μM, 72 hours), 48%.

Take `C[N+](C)(CCO)Cc1ccc2sc3ccccc3c(=O)c2c1` [CCcompound13, 2-Hydroxy-N,N-dimethyl-N-[(9-oxo-9H-thioxanthen-2-yl)methyl]-ethanaminium bromide]: the inhibition at 100 µM in the test on MEL-28 cells (100 μM, 72 hours) worked out at 11%; with OVCAR cells, 27%; in the test with T47D cells (100 μM, 72 hours) it was 47%.

On to `CC[N+](CC)(CCO)Cc1ccc2sc3ccccc3c(=O)c2c1` [CCcompound14, 2-Hydroxy-N,N-Diethyl-N-[(9-oxo-9H-thioxanthen-2-yl)methyl]-ethanaminium bromide], for which the inhibition at 100 µM with MEL-28 cells (100 μM, 72 hours) was found to be 90%; with OVCAR cells it was 65%; with T47D cells (100 μM, 72 hours), 58%.

Take `C[N+](C)(CCCO)Cc1ccc2sc3ccccc3c(=O)c2c1` [CCcompound15, 3-Hydroxy-N,N-dimethyl-N-[(9-oxo-9H-thioxanthen-2-yl)methyl]propane-1-aminium bromide]: the inhibition at 100 µM was found to be 19% in the test with MEL-28 cells (100 μM, 72 hours); 26% with OVCAR cells; 35% in the test with T47D cells (100 μM, 72 hours).

On to `CC[N+](CC)(CCCO)Cc1ccc2sc3ccccc3c(=O)c2c1` [CCcompound16, 3-Hydroxy-N,N-diethyl-N-[(9-oxo-9H-thioxanthen-2-yl)methyl]-propane-1-aminium bromide], for which the inhibition at 100 µM in the test with MEL-28 cells (100 μM, 72 hours) came out at 10%; in the test on OVCAR cells, 0%; with T47D cells (100 μM, 72 hours) it was 48%.
